According to patent US20080176936A1, “Classes of Compounds that Interact with Integrins” (priority 2005, published 2008):

Assays:
αllbβ3 integrin = biological target: T1, αllbβ3 integrin (Homo sapiens, UniProt P05106+P08514); assay: ELISA: inhibition of binding of αllbβ3 integrin membrane preparation to coated extracellular matrix protein; settings: human platelet membrane preparation
T1 construct: Human platelet membrane preparations were used as a source of αllbβ3 integrin; from tissue; host or cells: human platelets (membrane preparation)
T1 sequence (P08514 32-887 limits assumed): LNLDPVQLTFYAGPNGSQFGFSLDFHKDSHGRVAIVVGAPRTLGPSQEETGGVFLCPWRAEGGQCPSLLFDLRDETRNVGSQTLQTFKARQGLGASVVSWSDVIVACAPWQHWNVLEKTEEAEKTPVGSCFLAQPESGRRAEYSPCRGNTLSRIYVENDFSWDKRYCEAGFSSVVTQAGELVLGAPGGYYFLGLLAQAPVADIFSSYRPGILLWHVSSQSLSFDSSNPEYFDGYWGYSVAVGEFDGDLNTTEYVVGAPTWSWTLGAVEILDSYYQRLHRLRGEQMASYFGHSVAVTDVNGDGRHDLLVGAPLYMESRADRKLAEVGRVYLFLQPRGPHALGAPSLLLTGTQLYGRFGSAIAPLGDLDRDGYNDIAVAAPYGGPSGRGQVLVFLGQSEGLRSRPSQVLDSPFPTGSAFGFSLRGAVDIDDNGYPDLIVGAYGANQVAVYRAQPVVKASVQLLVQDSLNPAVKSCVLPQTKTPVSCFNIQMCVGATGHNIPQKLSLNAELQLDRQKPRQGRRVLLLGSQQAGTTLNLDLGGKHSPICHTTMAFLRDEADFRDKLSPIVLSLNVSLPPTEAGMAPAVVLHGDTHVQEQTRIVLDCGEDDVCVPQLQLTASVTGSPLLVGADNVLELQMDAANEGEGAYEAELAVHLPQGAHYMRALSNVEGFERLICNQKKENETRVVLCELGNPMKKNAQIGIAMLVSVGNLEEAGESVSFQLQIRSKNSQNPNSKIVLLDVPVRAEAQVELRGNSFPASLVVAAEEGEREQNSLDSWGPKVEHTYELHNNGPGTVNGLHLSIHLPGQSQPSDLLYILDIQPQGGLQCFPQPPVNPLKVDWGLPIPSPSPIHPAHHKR
T1 sequence (P08514 891-1039 partner limits assumed): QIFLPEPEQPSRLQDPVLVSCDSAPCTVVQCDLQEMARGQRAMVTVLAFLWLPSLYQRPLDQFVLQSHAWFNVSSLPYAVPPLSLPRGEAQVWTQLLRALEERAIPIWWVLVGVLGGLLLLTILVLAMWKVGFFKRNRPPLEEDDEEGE
T1 sequence (P05106 27-788): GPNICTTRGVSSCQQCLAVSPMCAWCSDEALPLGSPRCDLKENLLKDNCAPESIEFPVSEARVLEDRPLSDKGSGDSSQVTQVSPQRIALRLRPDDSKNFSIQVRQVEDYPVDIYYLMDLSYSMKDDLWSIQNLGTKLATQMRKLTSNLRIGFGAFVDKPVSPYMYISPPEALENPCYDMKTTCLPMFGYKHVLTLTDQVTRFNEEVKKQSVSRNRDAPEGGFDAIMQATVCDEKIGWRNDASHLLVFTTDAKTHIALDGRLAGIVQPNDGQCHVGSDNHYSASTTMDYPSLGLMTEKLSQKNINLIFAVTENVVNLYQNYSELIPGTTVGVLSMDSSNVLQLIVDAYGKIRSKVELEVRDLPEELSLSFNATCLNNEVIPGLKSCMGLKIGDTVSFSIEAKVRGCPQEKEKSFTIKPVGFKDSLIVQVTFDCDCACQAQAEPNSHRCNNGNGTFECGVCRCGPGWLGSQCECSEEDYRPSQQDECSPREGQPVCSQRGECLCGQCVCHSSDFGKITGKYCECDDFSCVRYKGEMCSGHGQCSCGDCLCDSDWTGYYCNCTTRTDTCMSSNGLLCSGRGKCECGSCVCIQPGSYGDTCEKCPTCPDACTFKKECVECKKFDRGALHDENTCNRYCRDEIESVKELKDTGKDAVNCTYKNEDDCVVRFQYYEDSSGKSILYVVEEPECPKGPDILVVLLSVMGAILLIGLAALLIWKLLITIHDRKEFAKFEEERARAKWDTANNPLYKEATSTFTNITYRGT
Procedure: (§1) An ELISA assay based on the published method of Bethert et al., 2000, J Biol Chem 275, 33308-23, was employed.
(§2) Briefly, appropriate microtitre plates were coated with either Fibrinogen or Vitronectin (10 μg/well). These extracellular matrix proteins contain the RGD amino acid sequence that is recognized by αllbβ3 integrin. Human platelet membrane preparations were used as a source of αllbβ3 integrin and the cell line WM-115 was used as a source of αVβ3 integrin. Inhibition of the binding of αllbβ3 integrin containing membrane preparations to the extracellular matrix protein was determined by pre-incubating the platelet membrane preparation with test or control compounds. The binding of the αllbβ3 integrin containing membrane was the quantitated by using a rabbit anti-integrinβ3 antibody, a horse radish peroxidase coupled second antibody and a standard colorimetric detection system.

αVβ3 integrin = biological target: T2, αVβ3 integrin (Homo sapiens, UniProt P05106+P06756); assay: ELISA: inhibition of binding of αVβ3 integrin (source WM-115 cell line) to coated extracellular matrix protein; settings: WM-115 cell line as integrin source
T2 construct: the cell line WM-115 was used as a source of αVβ3 integrin; endogenous in cells; host or cells: WM-115 cell line
T2 sequence (P06756 31-889 limits assumed): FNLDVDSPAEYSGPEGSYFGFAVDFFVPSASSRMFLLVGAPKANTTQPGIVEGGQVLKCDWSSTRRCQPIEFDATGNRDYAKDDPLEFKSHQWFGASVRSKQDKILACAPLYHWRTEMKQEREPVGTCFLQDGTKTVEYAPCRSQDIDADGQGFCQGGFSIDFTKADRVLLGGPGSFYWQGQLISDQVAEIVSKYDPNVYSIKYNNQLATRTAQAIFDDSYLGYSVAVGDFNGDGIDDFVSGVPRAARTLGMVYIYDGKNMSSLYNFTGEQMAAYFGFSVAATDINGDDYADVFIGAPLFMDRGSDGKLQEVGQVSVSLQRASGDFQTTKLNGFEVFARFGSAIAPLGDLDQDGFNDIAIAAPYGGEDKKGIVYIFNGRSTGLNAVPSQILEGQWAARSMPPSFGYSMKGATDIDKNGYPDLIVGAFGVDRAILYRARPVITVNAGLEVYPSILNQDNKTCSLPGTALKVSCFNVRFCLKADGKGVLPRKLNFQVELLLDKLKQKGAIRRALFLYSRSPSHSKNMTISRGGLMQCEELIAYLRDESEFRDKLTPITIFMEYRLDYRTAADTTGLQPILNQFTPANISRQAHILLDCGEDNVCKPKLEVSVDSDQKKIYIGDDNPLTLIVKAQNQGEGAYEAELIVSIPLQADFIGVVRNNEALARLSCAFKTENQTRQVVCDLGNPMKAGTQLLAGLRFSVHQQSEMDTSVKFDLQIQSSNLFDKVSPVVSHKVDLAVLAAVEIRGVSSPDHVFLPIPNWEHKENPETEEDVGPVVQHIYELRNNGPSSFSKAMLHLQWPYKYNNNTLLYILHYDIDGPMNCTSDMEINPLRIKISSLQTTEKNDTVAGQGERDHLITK
T2 sequence (P06756 891-1048 partner limits assumed): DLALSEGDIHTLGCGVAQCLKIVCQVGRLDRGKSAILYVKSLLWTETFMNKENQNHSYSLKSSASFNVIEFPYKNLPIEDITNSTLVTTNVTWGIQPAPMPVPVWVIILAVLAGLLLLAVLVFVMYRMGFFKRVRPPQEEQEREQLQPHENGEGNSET
T2 sequence (P05106 27-788): as the sequence (P05106 27-788) above
Procedure: as §1, §2

| Structure (SMILES) | INHIBITION @ 250 uM RECEPTOR allBb3 SUBSTRATE FIBRINOGEN (αllbβ3 integrin) | INHIBITION 250 uM RECEPTOR allBb3 SUBSTRATE VITRONECTIN (αllbβ3 integrin) | INHIBITION 250 uM RECEPTOR aVb3 SUBSTRATE FIBRINOGEN (αVβ3 integrin) |
| --- | --- | --- | --- |
| COC1OC(COCc2ccc(Br)cc2)C(O)C(OCc2cccc(N)c2)C1NC(=O)CCC(=O)O (single isomer, unassigned) [Compound 25] | + (36% to 60% inhibition at 250 micromolar) | +++ (81% to 100% inhibition at 250 micromolar) | +++ (81% to 100% inhibition at 250 micromolar) |
| Nc1cccc(COC2C(O)C(COCc3ccc(Br)cc3)OC(O)C2NC(=O)CCC(=O)O)c1 (single isomer, unassigned) [Compound 26] | + (36% to 60% inhibition at 250 micromolar) | +++ (81% to 100% inhibition at 250 micromolar) | ++ (61% to 80% inhibition at 250 micromolar) |
| COC1OC(COCC(=O)O)C(O)C(OCc2cccc(N)c2)C1NC(=O)c1ccccc1 (single isomer, unassigned) [Compound 27] | ++ (61% to 80% inhibition at 250 micromolar) | +++ (81% to 100% inhibition at 250 micromolar) | +++ (81% to 100% inhibition at 250 micromolar) |
| COC1OC(COCC(=O)O)C(O)C(OCc2cccc(N)c2)C1NC(=O)c1ccccc1 (single isomer, unassigned) [Compound 28] | + (36% to 60% inhibition at 250 micromolar) | +++ (81% to 100% inhibition at 250 micromolar) | +++ (81% to 100% inhibition at 250 micromolar) |
| Nc1cccc(COC2C(O)C(COCC(=O)O)OC(O)C2NC(=O)c2ccccc2)c1 (single isomer, unassigned) [Compound 29] | ++ (61% to 80% inhibition at 250 micromolar) | +++ (81% to 100% inhibition at 250 micromolar) | +++ (81% to 100% inhibition at 250 micromolar) |
| COC1OC(COCc2ccc(C(=O)O)cc2)C(O)C(OCc2cccc(N)c2)C1NC(=O)c1ccc(Cl)cc1 (single isomer, unassigned) [Compound 30] | ++ (61% to 80% inhibition at 250 micromolar) | +++ (81% to 100% inhibition at 250 micromolar) | +++ (81% to 100% inhibition at 250 micromolar) |
| COC1O[C@H](COCc2ccc(C(=O)O)cc2)[C@@H](O)[C@H](OCc2cccc(N)c2)[C@H]1NC(=O)c1ccc(Cl)cc1 (single isomer, unassigned) [Compound 31] | +++ (81% to 100% inhibition at 250 micromolar) | +++ (81% to 100% inhibition at 250 micromolar) | +++ (81% to 100% inhibition at 250 micromolar) |
| CCOC1O[C@H](COCC(=O)O)[C@@H](O)[C@H](OCc2ccccc2)[C@H]1NC(=O)c1cccc(N)c1 (single isomer, unassigned) [Compound 32] | + (36% to 60% inhibition at 250 micromolar) | +++ (81% to 100% inhibition at 250 micromolar) | − (0% to 35% inhibition at 250 micromolar) |
| Nc1cccc(C(=O)N[C@H]2C(O)O[C@H](COCC(=O)O)[C@@H](O)[C@@H]2OCc2ccccc2)c1 (single isomer, unassigned) [Compound 33] | ++ (61% to 80% inhibition at 250 micromolar) | − (0% to 35% inhibition at 250 micromolar) | − (0% to 35% inhibition at 250 micromolar) |
| Nc1cccc(C(=O)N[C@H]2C(O)O[C@H](COCC(=O)O)[C@@H](O)[C@@H]2OCc2ccccc2)c1 (single isomer, unassigned) [Compound 34] | + (36% to 60% inhibition at 250 micromolar) | +++ (81% to 100% inhibition at 250 micromolar) | +++ (81% to 100% inhibition at 250 micromolar) |
| CCOC1O[C@H](COCc2ccc(C(=O)O)cc2)[C@@H](O)[C@H](OCc2ccccc2)[C@H]1NC(=O)c1cccc(N)c1 (single isomer, unassigned) [Compound 35] | + (36% to 60% inhibition at 250 micromolar) | +++ (81% to 100% inhibition at 250 micromolar) | +++ (81% to 100% inhibition at 250 micromolar) |
| CCOC1O[C@H](COCc2cccc(N)c2)[C@@H](O)[C@H](OCc2ccccc2)[C@H]1NC(=O)c1ccc(C(=O)O)cc1 (single isomer, unassigned) [Compound 36] | + (36% to 60% inhibition at 250 micromolar) | +++ (81% to 100% inhibition at 250 micromolar) | +++ (81% to 100% inhibition at 250 micromolar) |
| CCOC1O[C@H](COCc2cccc(N)c2)[C@@H](O)[C@H](OCc2ccccc2)[C@H]1NC(=O)c1ccc(C(=O)O)cc1 (single isomer, unassigned) [Compound 37] | + (36% to 60% inhibition at 250 micromolar) | +++ (81% to 100% inhibition at 250 micromolar) | +++ (81% to 100% inhibition at 250 micromolar) |
| CCOC1O[C@H](COCC(=O)O)[C@@H](O)[C@H](OCc2ccc(Br)cc2)[C@H]1NC(=O)c1cccc(N)c1 (single isomer, unassigned) [Compound 38] | ++ (61% to 80% inhibition at 250 micromolar) | +++ (81% to 100% inhibition at 250 micromolar) | +++ (81% to 100% inhibition at 250 micromolar) |
| CCOC1O[C@H](COCC(=O)O)[C@@H](O)[C@H](OCc2ccc(Br)cc2)[C@H]1NC(=O)c1cccc(N)c1 (single isomer, unassigned) [Compound 39] | + (36% to 60% inhibition at 250 micromolar) | +++ (81% to 100% inhibition at 250 micromolar) | +++ (81% to 100% inhibition at 250 micromolar) |
| CCOC1O[C@H](COCc2ccc(C(=O)O)cc2)[C@@H](O)[C@H](OCc2ccc(Br)cc2)[C@H]1NC(=O)c1cccc(N)c1 (single isomer, unassigned) [Compound 40] | +++ (81% to 100% inhibition at 250 micromolar) | +++ (81% to 100% inhibition at 250 micromolar) | +++ (81% to 100% inhibition at 250 micromolar) |
| CCOC1O[C@H](COCc2ccc(C(=O)O)cc2)[C@@H](O)[C@H](OCc2ccc(Br)cc2)[C@H]1NC(=O)c1cccc(N)c1 (single isomer, unassigned) [Compound 41] | + (36% to 60% inhibition at 250 micromolar) | ++ (61% to 80% inhibition at 250 micromolar) | + (36% to 60% inhibition at 250 micromolar) |
| Nc1cccc(C(=O)N[C@H]2C(O)O[C@H](COCc3ccc(C(=O)O)cc3)[C@@H](O)[C@@H]2OCc2ccc(Br)cc2)c1 (single isomer, unassigned) [Compound 42] | + (36% to 60% inhibition at 250 micromolar) | +++ (81% to 100% inhibition at 250 micromolar) | − (0% to 35% inhibition at 250 micromolar) |
| CCOC1O[C@H](COCc2cccc(N)c2)[C@@H](O)[C@H](OCc2ccc(Br)cc2)[C@H]1NC(=O)CCC(=O)O (single isomer, unassigned) [Compound 44] | ++ (61% to 80% inhibition at 250 micromolar) | − (0% to 35% inhibition at 250 micromolar) | + (36% to 60% inhibition at 250 micromolar) |
| CCOC1O[C@H](COCc2cccc(N)c2)[C@@H](O)[C@H](OCc2ccc(Br)cc2)[C@H]1NC(=O)CCC(=O)O (single isomer, unassigned) [Compound 45] | ++ (61% to 80% inhibition at 250 micromolar) | +++ (81% to 100% inhibition at 250 micromolar) | +++ (81% to 100% inhibition at 250 micromolar) |
| Nc1cccc(COC[C@H]2OC(O)[C@H](NC(=O)CCC(=O)O)[C@@H](OCc3ccc(Br)cc3)[C@@H]2O)c1 (single isomer, unassigned) [Compound 46] | + (36% to 60% inhibition at 250 micromolar) | +++ (81% to 100% inhibition at 250 micromolar) | +++ (81% to 100% inhibition at 250 micromolar) |
| Nc1cccc(COC[C@H]2OC(O)[C@H](NC(=O)CCC(=O)O)[C@@H](OCc3ccc(Br)cc3)[C@@H]2O)c1 (single isomer, unassigned) [Compound 47] | + (36% to 60% inhibition at 250 micromolar) | +++ (81% to 100% inhibition at 250 micromolar) | − (0% to 35% inhibition at 250 micromolar) |
